Results taken from patent US8759536B2, “Rhodanine derivatives, method for preparing same, and pharmaceutical composition for the prevention or treatment of aids containing the rhodanine derivatives as active ingredients” (Avixgen Inc., priority 2010, dated 2014).

Test system: HIV
Assay: Assay for inhibitory activity against HIV (p24 ELISA, infected MT-4 cells)
Format: cell-based
Details: Human immunodeficiency virus 1, MT4; MT-4 cells infected with pNL4-3-derived HIV; p24 ELISA after 48 + 48 hrs; read-out: Conc. for Inhibition of HIV Activity (IC50)
Procedure: The rhodanine derivatives of the present invention were assayed for inhibitory activity against HIV as follows.
A pNL4-3 vector carrying an HIV genome was transduced into 293FT cells. […] 293FT cells were seeded at a density of 3.0×10^5 cells/well into 6-well plates containing antibiotic-free DMEM supplemented with 10% FBS and grown for 48 hrs. Upon 90-95% confluency, the transduction was performed.
The DNA (pNL4-3) was added at a final concentration of 10 ng/mL to 250 μL of the reduced serum medium Opti-MEM I (GIBCO™, USA). Separately, 4 μL of Lipofectamine™ 2000 (Invitrogen, USA) was mixed with 250 μL of Opti-MEM I (GIBCO™), and incubated at room temperature for 5 min. The DNA (pNL4-3) was mixed at a ratio of 1:2 with the lipofectamine and reacted at room temperature for 20 min to form a DNA-lipofectamine complex. After removal of the medium from the cell culture, the mixture containing the DNA-lipofectamine complex was added to the cells and incubated for 4 hrs in a CO2 incubator. Then, the cell culture medium was replaced with a fresh antibiotic-free, 10% FBS-supplemented DMEM, followed by incubation for an additional 48 hrs. The HIV-infected cell culture was centrifuged at 1,500 rpm for 5 min to give a virus supernatant.
MT-4 cells were plated at a density of 1.0×10^6 cells/mL into 6-well plates containing RPMI supplemented with 10% FBS and incubated for 4 hrs before infection at a ratio of 1:1 with the virus supernatant. The cells were incubated for 48 hrs in a CO2 incubator, after which the culture medium was replaced with a fresh one. Again, incubation was continued for an additional 72 hrs to amplify the virus. After centrifugation at 1,500 rpm for 5 min, the virus supernatant thus obtained was examined for virus density using a Virononstika HIV-1 Antigen Microelisa system kit (bioMerieux, Inc. Netherland).
2. Assay for Inhibitory Activity Against HIV
The rhodanine derivatives prepared in Examples 1 to 38 were dissolved in DMSO to prepare respective 10 mM or 20 mM stocks, and stored at −20° C. The stocks were diluted to a starting concentration of 200 μM in DMSO before use in experiments.
MT-4 cells were suspended at a density of 4×10^5 cells in 200 μL of RPMI 1640 (Gibco, 10% FBS) per well of 24-well plates, and infected with 200 μL of a virus supernatant containing 2×10^5 pg/mL to give a total volume of 400 μL. After the stocks of the rhodanine derivatives were […] diluted to 200 μM in DMSO, 2 μL of each dilution was added to the cells to a final concentration of 1 μM or less. For a positive control, 10 μM AZT (azidothymidine, Sigma, USA) was used at a final concentration of 50 nM while DMSO was used at a final concentration of 0.5% as a negative control. The cells were cultured for 48 hrs in a CO2 incubator (37° C., 5% CO2), and the culture medium was replaced by RPMI 1640 containing the rhodanine derivative at a final concentration of 1 μM, followed by incubation for an additional 48 hrs. Virus soups were separated from cells by centrifugation at 1,500 rpm for 5 min and then at 13, 000 rpm for 5 min. ELISA for p24 concentrations was carried out using a Virononstika HIV-1 Antigen Microelisa system kit (bioMerieux, Inc. Netherland) to determine the inhibitory activity of each of the rhodanine derivatives against HIV.

For O=C1/C(=C/c2ccc(-c3ccc(Cl)cc3Cl)o2)SC(=S)N1c1cccc(F)c1 [Example 8, 5-[5-(2,4-dichloro-phenyl)-furan-2-ylmethylene]-3-(3-fluoro-phenyl)-2-thioxo-thiazolidin-4-one], which IC50 is on record?
The IC50 was 500 nM.

For O=C1C(=Cc2ccc(-c3ccc([N+](=O)[O-])cc3)o2)SC(=S)N1c1cccc(F)c1 [Example 13, 3-(3-fluoro-phenyl)-5-[5-(4-nitro-phenyl)-furan-2-ylmethylene]-2-thioxo-thiazolidin-4-one], which IC50 is on record?
Its IC50 is 500 nM.

For CC(C)OC(=O)c1ccc(-c2ccc(/C=C3/SC(=S)NC3=O)o2)cc1 [Example 23, 4-[5-(4-oxo-2-thioxo-thiazolidin-5-ylidenemethyl)-furan-2-yl]-benzoic acid isopropylester], which IC50 is on record?
Its IC50 is 400 nM.

CCCOC(=O)c1cc(-c2ccc(/C=C3/SC(=S)NC3=O)o2)ccc1Cl [Example 29, 2-chloro-5-[5-(4-oxo-2-thioxo-thiazolidin-5-ylidenemethyl)-furan-2-yl]-benzoic acid propyl ester] was tested. Which IC50 did it give?
The IC50 was 500 nM.

Which IC50 does the source give for COc1ccc(-c2ccc(/C=C3\SC(=S)N(CC(=O)O)C3=O)o2)c([N+](=O)[O-])c1 [Example 21, {5-[5-(4-methoxy-2-nitro-phenyl)-furan-2-ylmethylene]-4-oxo-2-thioxo-thiazolidin-3-yl}-acetic acid] here?
The IC50 was 1000 nM.

With CC(=O)CCN1C(=O)/C(=C/c2ccc(-c3ccc(Br)cc3)o2)SC1=S [Example 5, 5-[5-(4-bromo-phenyl)-furan-2-ylmethylene]-3-(3-oxo-butyl)-2-thioxo-thiazolidin-4-one] as the compound, how does the IC50 read?
The IC50 was 1000 nM.

Which IC50 does the source give for O=C1C(=Cc2ccc(-c3cc([N+](=O)[O-])ccc3Br)o2)SC(=S)N1c1ccc(I)cc1 [Example 16, 5-[5-(2-bromo-5-nitro-phenyl)-furan-2-ylmethylene]-3-(4-iodo-phenyl)-2-thioxo-thiazolidin-4-one] here?
Its IC50 is 500 nM.

For O=C(O)CN1C(=O)/C(=C/c2ccc(-c3cccc([N+](=O)[O-])c3)o2)SC1=S [Example 38, {5-[5-(3-nitro-phenyl)-furan-2-ylmethylene]-4-oxo-2-thioxo-thiazolidin-3-yl}-acetic acid], which IC50 is on record?
The IC50 was 750 nM.

How did the IC50 turn out when Cc1ccc(N2C(=O)/C(=C/c3ccc(-c4cccc([N+](=O)[O-])c4)o3)SC2=S)c(C)c1 [Example 1, 3-(2,4-Dimethyl-phenyl)-5-[5-(3-nitro-phenyl)-furan-2-ylmethylene]-2-thioxo-thiazolidin-4-one] was run?
The IC50 was 800 nM.
